Test results as given in patent US12617783B2, “Heterocyclic GLP-1R agonists” (BIOMEA FUSION, INC., priority 2024, dated 2026).

The molecules below were run against T1, human GLP-1R (Homo sapiens, UniProt P43220) (assay: GLP-1R cAMP assay (Example B1b, HTRF, 30 min at 37°)). Details: cAMP accumulation in HEK293 expressing human GLP-1R, no BETP, 30 min at 37° (Method B1b), Table 1.
T1 construct: host or cells: HEK293
Format: cell-based
Procedure: Assay was carried out with HEK293 expressing human GLP-1R using HTRF assay, developed by Wuxi Apptec. The method is a competitive assay between native cAMP produced by the cells and exogenous cAMP labeled with a proprietary dye d2. The tracer binding is visualized by a mAb anti-cAMP labeled with Cryptate. The signal (i.e. energy transfer) is inversely proportional to the concentration of CAMP in either standard or experimental sample. Compounds were tested in the absence of BETP. Ten microliter of cell suspension in assay buffer (5 mM HEPES, 500 μM IBMX, 0.1% BSA) were added to each well (1,000 cells per well) in a low volume 384-well plate for the assay. Serially diluted compounds were added in 100 nL volume to duplicate wells, by Labcyte Echo. GLP-1 (7-37) was used as positive control. Assay plate was incubated for 30 minutes at 37°. Stock of cAMP Detection Solution was prepared by mixing 38 parts of cAMP lysis buffer, 1 part of cAMP-D2, 1 part of anti-cAMP cryptate reagent (Cisbio #62AM4PEJ). Ten microliter of the cAMP Detection Solution was added to each well, and the assay plate was incubated for 1 hour at room temperature in the dark. Plates were read on Envision plate reader. The data were analyzed by ScreenUltra in Dotmatics, with % activation expressed using following formula: (Signal ratio […]*10000−negative control)/(postive control−negative control)*100. Dose response curves were plotted and EC50 values calculated by non-linear regression using 4-parameter fit. The potency (EC50) values for cAMP accumulation in HEK293 cells are reported in the Table 1 below (for compounds ID 610-708).

T1 sequence (P43220 24-463): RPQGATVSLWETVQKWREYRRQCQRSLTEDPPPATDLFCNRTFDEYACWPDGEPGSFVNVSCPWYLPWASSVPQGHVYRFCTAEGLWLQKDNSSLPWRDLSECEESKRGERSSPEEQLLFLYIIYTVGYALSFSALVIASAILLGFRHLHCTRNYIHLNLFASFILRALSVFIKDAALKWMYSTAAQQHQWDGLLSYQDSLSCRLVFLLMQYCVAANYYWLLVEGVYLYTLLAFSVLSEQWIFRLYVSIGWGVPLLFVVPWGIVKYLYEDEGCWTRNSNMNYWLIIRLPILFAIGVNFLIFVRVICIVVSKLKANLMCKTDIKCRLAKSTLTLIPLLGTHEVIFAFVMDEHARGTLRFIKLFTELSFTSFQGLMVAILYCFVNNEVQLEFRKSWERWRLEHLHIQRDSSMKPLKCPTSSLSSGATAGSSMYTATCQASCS

| SMILES | EC50 [µM] |
| --- | --- |
| Cc1cc(-c2nn3c(c2-n2ccn(-c4ccc5c(cnn5C)c4F)c2=O)[C@@H](C)N(C(=O)c2cc4cc([C@H]5CCOC(C)(C)C5)ccc4n2[C@@]2(c4noc(=O)[nH]4)C[C@@H]2C)CCC3)cc(C)c1F [Compound 702, 3-((1S,2S)-1-(5-((S)-2,2-dimethyltetrahydro-2H-pyran-4-yl)-2-((R)-3-(3-(4-fluoro-1-methyl-1H-indazol-5-yl)-2-oxo-2,3-dihydro-1H-imidazol-1-yl)-2-(4-fluoro-3,5-dimethylphenyl)-4-methyl-5,6,7,8-tetrahydro-4H-pyrazolo[1,5-a][1,4]diazepine-5-carbonyl)-1H-indol-1-yl)-2-methylcyclopropyl)-1,2,4-oxadiazol-5 (4H)-one] | > 0.1 |
| Cc1cc(-n2nc3c(c2-n2ccn(-c4ccc5c(cnn5C)c4F)c2=O)[C@@H]2CC[C@H](C3)N2C(=O)c2c(F)c3cc(C4CCOC(C)(C)C4)ccc3n2[C@@]2(c3noc(=O)[nH]3)C[C@@H]2C)cc(C)c1F (stereo partly drawn) [Compound 708, 3-[(1S,2S)-1-[5-(2,2-dimethyltetrahydropyran-4-yl)-3-fluoro-2-[(1S,8R)-4-(4-fluoro-3,5-dimethyl-phenyl)-3-[3-(4-fluoro-1-methyl-indazol-5-yl)-2-oxo-imidazol-1-yl]-4,5,11-triazatricyclo[6.2.1.02,6]undeca-2,5-diene-11-carbonyl]indol-1-yl]-2-methyl-cyclopropyl]-4H-1,2,4-oxadiazol-5-one] | 0.0085 |
| Cc1cc(-n2nc3c(c2-n2ccn(-c4ccc5c(cnn5C)c4F)c2=O)[C@@H]2CC[C@H](C3)N2C(=O)c2cc3cc(C4CCOC(C)(C)C4)c(F)cc3n2[C@@]2(c3noc(=O)[nH]3)C[C@@H]2C)cc(C)c1F (stereo partly drawn) [Compound 716, 3-[(1S,2S)-1-[5-(2,2-dimethyltetrahydropyran-4-yl)-6-fluoro-2-[(1S,8R)-4-(4-fluoro-3,5-dimethyl-phenyl)-3-[3-(4-fluoro-1-methyl-indazol-5-yl)-2-oxo-imidazol-1-yl]-4,5,11-triazatricyclo[6.2.1.02,6]undeca-2,5-diene-11-carbonyl]indol-1-yl]-2-methyl-cyclopropyl]-4H-1,2,4-oxadiazol-5-one] | 0.005 |
| CNC(=O)Cc1ccc(-n2ccn(-c3c4c(nn3-c3cc(C)c(F)c(C)c3)C[C@H]3CCC[C@@H]4N3C(=O)c3cc4cc([C@H]5CCOC(C)(C)C5)ccc4n3[C@@]3(c4noc(=O)[nH]4)C[C@@H]3C)c2=O)cc1F [Compound 611, 2-(4-(3-((4S,8R)-10-(5-((S)-2,2-dimethyltetrahydro-2H-pyran-4-yl)-1-((1S,2S)-2-methyl-1-(5-oxo-4,5-dihydro-1,2,4-oxadiazol-3-yl)cyclopropyl)-1H-indole-2-carbonyl)-2-(4-fluoro-3,5-dimethylphenyl)-4,5,6,7,8,9-hexahydro-2H-4,8-epiminocycloocta [c]pyrazol-3-yl)-2-oxo-2,3-dihydro-1H-imidazol-1-yl)-2-fluorophenyl)-N-methylacetamide] | 0.0051 |
| Cc1cc(-n2nc3c(c2-n2ccn(-c4ccc5c(cnn5C)c4F)c2=O)[C@@H]2CC[C@H](C3)N2C(=O)c2cc3cc(C4CCOC(C)(C)C4)cc(F)c3n2[C@@]2(c3noc(=O)[nH]3)C[C@@H]2C)cc(C)c1F (stereo partly drawn) [Compound 618, 3-[(1S,2S)-1-[5-(2,2-dimethyltetrahydropyran-4-yl)-7-fluoro-2-[(1S,8R)-4-(4-fluoro-3,5-dimethyl-phenyl)-3-[3-(4-fluoro-1-methyl-indazol-5-yl)-2-oxo-imidazol-1-yl]-4,5,11-triazatricyclo[6.2.1.02,6]undeca-2,5-diene-11-carbonyl]indol-1-yl]-2-methyl-cyclopropyl]-4H-1,2,4-oxadiazol-5-one] | 0.0296 |
| Cc1cc(-n2nc3c(c2-n2ccn(-c4ccc5c(cnn5C)c4F)c2=O)[C@@H]2CCC[C@H](C3)N2C(=O)c2cc3cc(C4CCOC(C)(C)C4)cc(F)c3n2[C@@]2(c3noc(=O)[nH]3)C[C@@H]2C)cc(C)c1F (stereo partly drawn) [Compound 615, 3-((1S,2S)-1-(5-(2,2-dimethyltetrahydro-2H-pyran-4-yl)-7-fluoro-2-((4S,8R)-3-(3-(4-fluoro-1-methyl-1H-indazol-5-yl)-2-oxo-2,3-dihydro-1H-imidazol-1-yl)-2-(4-fluoro-3,5-dimethylphenyl)-4,5,6,7,8,9-hexahydro-2H-4,8-epiminocycloocta [c]pyrazole-10-carbonyl)-1H-indol-1-yl)-2-methylcyclopropyl)-1,2,4-oxadiazol-5 (4H)-one] | 0.0142 |

Stronger by EC50, values ahead:

| EC50 [µM] | SMILES |
| --- | --- |
| 0.0019 | Cc1cc(-n2nc3c(c2-n2ccn(-c4ccc(N(C)C(=O)C5CC5)c(Cl)c4)c2=O)[C@@H]2CCC[C@H](C3)N2C(=O)c2cc3cc([C@H]4CCOC(C)(C)C4)ccc3n2[C@@]2(c3noc(=O)[nH]3)C[C@@H]2C)cc(C)c1F [Compound 612, N-(2-chloro-4-(3-((4S,8R)-10-(5-((S)-2,2-dimethyltetrahydro-2H-pyran-4-yl)-1-((1S,2S)-2-methyl-1-(5-oxo-4,5-dihydro-1,2,4-oxadiazol-3-yl)cyclopropyl)-1H-indole-2-carbonyl)-2-(4-fluoro-3,5-dimethylphenyl)-4,5,6,7,8,9-hexahydro-2H-4,8-epiminocycloocta [c]pyrazol-3-yl)-2-oxo-2,3-dihydro-1H-imidazol-1-yl)phenyl)-N-methylcyclopropanecarboxamide] |
| 0.002 | Cc1cc(-n2nc3c(c2-n2ccn(-c4ccc5c(c4)C4(CC4)C(=O)N5C)c2=O)[C@@H]2CCC[C@H](C3)N2C(=O)c2cc3cc([C@H]4CCOC(C)(C)C4)ccc3n2[C@@]2(c3noc(=O)[nH]3)C[C@@H]2C)cc(C)c1F [Compound 714, 3-((1S,2S)-1-(5-((S)-2,2-dimethyltetrahydro-2H-pyran-4-yl)-2-((4S,8R)-2-(4-fluoro-3,5-dimethylphenyl)-3-(3-(1′-methyl-2′-oxospiro[cyclopropane-1,3′-indolin]-5′-yl)-2-oxo-2,3-dihydro-1H-imidazol-1-yl)-4,5,6,7,8,9-hexahydro-2H-[4,8]epiminocycloocta [c]pyrazole-10-carbonyl)-1H-indol-1-yl)-2-methylcyclopropyl)-1,2,4-oxadiazol-5 (4H)-one] |
| 0.004 | Cc1cc(-n2nc3c(c2-n2ccn(-c4ccc5c(c4)N(C)C(=O)C5=O)c2=O)[C@@H]2CCC[C@H](C3)N2C(=O)c2cc3cc([C@H]4CCOC(C)(C)C4)ccc3n2[C@@]2(c3noc(=O)[nH]3)C[C@@H]2C)cc(C)c1F [Compound 710, 6-(3-((4S,8R)-10-(5-((S)-2,2-dimethyltetrahydro-2H-pyran-4-yl)-1-((1S,2S)-2-methyl-1-(5-oxo-4,5-dihydro-1,2,4-oxadiazol-3-yl)cyclopropyl)-1H-indole-2-carbonyl)-2-(4-fluoro-3,5-dimethylphenyl)-4,5,6,7,8,9-hexahydro-2H-4,8-epiminocycloocta [c]pyrazol-3-yl)-2-oxo-2,3-dihydro-1H-imidazol-1-yl)-1-methylindoline-2,3-dione] |
| 0.0024 | Cc1cc(-n2nc3c(c2-n2ccn(-c4ccc5c(cnn5C)c4F)c2=O)[C@@H]2COC[C@H](C3)N2C(=O)c2cc3cc([C@H]4CCOC(C)(C)C4)cc(F)c3n2[C@@]2(c3noc(=O)[nH]3)C[C@@H]2C)cc(C)c1F [Compound 705, 3-((1S,2S)-1-(5-((S)-2,2-dimethyltetrahydro-2H-pyran-4-yl)-7-fluoro-2-((4R,8S)-3-(3-(4-fluoro-1-methyl-1H-indazol-5-yl)-2-oxo-2,3-dihydro-1H-imidazol-1-yl)-2-(4-fluoro-3,5-dimethylphenyl)-2,4,5,7,8,9-hexahydro-4,8-epiminooxocino [5,4-c]pyrazole-10-carbonyl)-1H-indol-1-yl)-2-methylcyclopropyl)-1,2,4-oxadiazol-5(4H)-one] |
| 0.0008 | Cc1cc(-n2nc3c(c2-n2ccn(-c4ccc5ccncc5c4F)c2=O)[C@@H]2CCC[C@H](C3)N2C(=O)c2cc3cc([C@H]4CCOC5(CC5)C4)ccc3n2[C@@]2(c3noc(=O)[nH]3)C[C@@H]2C)cc(C)c1F [Compound 610, 3-((1S,2S)-1-(2-((4S,8R)-2-(4-fluoro-3,5-dimethylphenyl)-3-(3-(8-fluoroisoquinolin-7-yl)-2-oxo-2,3-dihydro-1H-imidazol-1-yl)-4,5,6,7,8,9-hexahydro-2H-4,8-epiminocycloocta [c]pyrazole-10-carbonyl)-5-((S)-4-oxaspiro[2.5]octan-7-yl)-1H-indol-1-yl)-2-methylcyclopropyl)-1,2,4-oxadiazol-5 (4H)-one] |
| 0.0006 | Cc1cc(-n2nc3c(c2-n2ccn(-c4ccc5cnccc5c4F)c2=O)[C@@H]2CCC[C@H](C3)N2C(=O)c2cc3cc([C@H]4CCOC5(CC5)C4)ccc3n2[C@@]2(c3noc(=O)[nH]3)C[C@@H]2C)cc(C)c1F [Compound 614, 3-((1S,2S)-1-(2-((4S,8R)-2-(4-fluoro-3,5-dimethylphenyl)-3-(3-(5-fluoroisoquinolin-6-yl)-2-oxo-2,3-dihydro-1H-imidazol-1-yl)-4,5,6,7,8,9-hexahydro-2H-4,8-epiminocycloocta [c]pyrazole-10-carbonyl)-5-((S)-4-oxaspiro[2.5]octan-7-yl)-1H-indol-1-yl)-2-methylcyclopropyl)-1,2,4-oxadiazol-5 (4H)-one] |
